Experimental data as given in patent publication US20240393694A1, “METAL CONTAINING PHOTORESIST DEVELOPER COMPOSITION, AND METHOD OF FORMING PATTERNS INCLUDING STEP OF DEVELOPING USING THE COMPOSITION” (SAMSUNG SDI CO., LTD., priority 2023, published 2024).

Assay: pKa of the sulfonimide-based compound (Table 1)

pKa	SMILES
9.5	O=C1CCC(=O)N1 [Succimide]
8.3	O=C1NC(=O)c2ccccc21 [Phthalimide]
